Reference: BigSolDB 2.1

O=C(O)CC[C@H](NC(=O)OCC1c2ccccc2-c2ccccc21)C(=O)O
solubility (mole fraction)
Settings | 283.15 K | 288.15 K | 293.15 K | 298.15 K | 303.15 K | 308.15 K | 313.15 K | 318.15 K | 323.15 K
in 2-butanone | 0.0112 | 0.0112 | 0.012 | 0.0127 | 0.0136 | 0.0143 | 0.0157 | 0.0176 | 0.0191
in acetone | 0.0243 | 0.0261 | 0.0274 | 0.0295 | 0.0323 | 0.0342 | 0.0393 | 0.0437 | 0.0471
in acetonitrile | 0.000662 | 0.000708 | 0.0008 | 0.000997 | 0.00123 | 0.00139 | 0.00166 | 0.00194 | 0.00232
in dimethyl carbonate | 0.00058 | 0.000625 | 0.000736 | 0.000819 | 0.000911 | 0.00108 | 0.00123 | 0.00157 | 0.00186
in ethanol | 0.0231 | 0.0257 | 0.0276 | 0.0319 | 0.0371 | 0.0419 | 0.0468 | 0.0514 | 0.0598
in ethyl acetate | 0.00239 | 0.0026 | 0.00296 | 0.00318 | 0.00347 | 0.00391 | 0.00451 | 0.00498 | 0.0056
in isopropanol | 0.0139 | 0.0142 | 0.0156 | 0.0175 | 0.0199 | 0.0238 | 0.0269 | 0.0302 | 0.0351
in methanol | 0.0246 | 0.0266 | 0.0295 | 0.0325 | 0.0364 | 0.0413 | 0.0471 | 0.0525 | 0.0611
in methyl acetate | 0.00319 | 0.00355 | 0.00388 | 0.00418 | 0.00473 | 0.00535 | 0.00609 | 0.00726 | 0.00888
in n-butanol | 0.00911 | 0.00972 | 0.0102 | 0.0114 | 0.0127 | 0.0141 | 0.016 | 0.0173 | 0.0199
in n-butyl acetate | 0.00177 | 0.00182 | 0.00204 | 0.0022 | 0.00238 | 0.00269 | 0.00309 | 0.0034 | 0.00381
in n-pentanol | 0.00655 | 0.00765 | 0.00845 | 0.00993 | 0.0112 | 0.0128 | 0.0159 | 0.0187 | 0.0221
in n-propanol | 0.0138 | 0.0146 | 0.0155 | 0.0172 | 0.02 | 0.0237 | 0.0258 | 0.03 | 0.0333
in n-propyl acetate | 0.0016 | 0.00169 | 0.00192 | 0.00204 | 0.00232 | 0.00247 | 0.00281 | 0.00317 | 0.00355
